For 10 compounds, TGI and GI50 results are on record in PubChem BioAssay (NCI).

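Compound exposure: 48 hours, 5 concentrations, 96-well plates. The concentration for 50% growth inhibition is given as GI50. TGI denotes the concentration required for complete inhibition of growth.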

Some test systems named below: A498 renal; CAKI-1 renal; CCRF-CEM leukemia; HCT-116 colon; HOP-92 NSCLC; IGROV1 ovarian; MALME-3M melanoma; MOLT-4 leukemia; NCI-H23 lung; OVCAR-4 ovarian.
Common to all, as to assay: DTP human tumour cell line panel, 48 h

On to `CC(C)Cc1ccc(C(C)/C=C2\CCC(CN3CCCC3)C2=O)cc1` (stereo not drawn), for which the TGI (usually the concentration giving total growth inhibition) in the experiment on A498 renal came to 36.5 µM; with CAKI-1 renal, 28 µM; in the experiment with CCRF-CEM leukemia, 8.71 µM; in the experiment on HCT-116 colon, 15.5 µM; in the experiment on HOP-92 NSCLC, 38 µM; in the experiment with IGROV1 ovarian, 19 µM. In addition, the TGI was 36.1 µM with MALME-3M melanoma, 9.64 µM with MOLT-4 leukemia, 26.6 µM in the experiment on NCI-H23 lung and 27.1 µM in the experiment on OVCAR-4 ovarian.
Take `CC(C)c1cccc(C(C)C)c1N=C(N)C#N`: the TGI was more than 100 µM in the experiment with A498 renal; more than 100 µM in the experiment on CAKI-1 renal; more than 100 µM in the experiment with CCRF-CEM leukemia; more than 58.6 µM in the experiment on HCT-116 colon; more than 100 µM in the experiment on HOP-92 NSCLC; more than 100 µM with IGROV1 ovarian. For the same compound, the TGI in the experiment on MALME-3M melanoma was more than 100 µM; in the experiment on MOLT-4 leukemia, more than 66 µM; in the experiment on NCI-H23 lung it was more than 100 µM; with OVCAR-4 ovarian, more than 100 µM.
Take `c1ccc2c(c1)nnn2CNc1ccc(N2CCOCC2)cc1`: the TGI in the experiment on A498 renal, in the experiment on CCRF-CEM leukemia, in the experiment on HCT-116 colon, in the experiment on HOP-92 NSCLC, with IGROV1 ovarian and in the experiment on MALME-3M melanoma was more than 100 µM each time. The TGI in the experiment on MOLT-4 leukemia, with NCI-H23 lung and in the experiment on OVCAR-4 ovarian was more than 100 µM throughout.
For `CC(=O)Nc1ccc2oc(=O)c3ccccc3c2c1`, the TGI in the experiment with A498 renal, in the experiment on CAKI-1 renal, with CCRF-CEM leukemia, in the experiment on HCT-116 colon, in the experiment with HOP-92 NSCLC and in the experiment on IGROV1 ovarian was more than 100 µM in each case. For the same compound, the TGI in the experiment with MALME-3M melanoma, in the experiment on MOLT-4 leukemia, with NCI-H23 lung and with OVCAR-4 ovarian was more than 100 µM throughout.
For the compound `CC1=C2C(=O)C(C)(C)C=C2C(=O)[C@](C)(O)C12CC2`, the TGI in the experiment with A498 renal, in the experiment on CAKI-1 renal, in the experiment with CCRF-CEM leukemia, with HCT-116 colon, in the experiment on HOP-92 NSCLC and in the experiment on IGROV1 ovarian was more than 1 µM each time. In addition, the TGI with MALME-3M melanoma is more than 0.946 µM; in the experiment on MOLT-4 leukemia, more than 1 µM; in the experiment on NCI-H23 lung it was more than 1 µM; in the experiment with OVCAR-4 ovarian, more than 1 µM.
With `C#Cc1cccc(Nc2ncnc3ccc(-c4cnc(Cl)c(NS(C)(=O)=O)c4)cc23)c1`, the GI50 (in general, the concentration at which growth is held to half of that of the control) is 0.0334 µM with A498 renal; 0.164 µM with CAKI-1 renal; 0.236 µM in the experiment with CCRF-CEM leukemia; 0.4 µM with HCT-116 colon; 0.078 µM in the experiment with HOP-92 NSCLC; 0.075 µM in the experiment on IGROV1 ovarian. Further, the GI50 in the experiment on MALME-3M melanoma was 0.0924 µM; in the experiment on MOLT-4 leukemia, 0.244 µM; with NCI-H23 lung, 0.385 µM; with OVCAR-4 ovarian, 0.762 µM. For the same compound, the TGI in the experiment on A498 renal was found to be 0.254 µM; in the experiment on CAKI-1 renal, 1.82 µM; in the experiment with CCRF-CEM leukemia, 28.8 µM; with HCT-116 colon it was 3.15 µM; in the experiment with HOP-92 NSCLC, 0.835 µM; with IGROV1 ovarian it was 0.402 µM. Further, the TGI in the experiment on MALME-3M melanoma worked out at 0.862 µM; with MOLT-4 leukemia it was 1.53 µM; with NCI-H23 lung, 8.03 µM; in the experiment with OVCAR-4 ovarian, 8.33 µM.
For the compound `COc1ccc(C(=O)C(Br)C(Br)C(=O)O)cc1` (stereo not drawn), the TGI was more than 100 µM in the experiment with A498 renal; more than 100 µM in the experiment on CAKI-1 renal; 44.9 µM in the experiment on HCT-116 colon; more than 100 µM with HOP-92 NSCLC; more than 100 µM in the experiment with IGROV1 ovarian; 46.2 µM in the experiment with MALME-3M melanoma. Moreover, the TGI with MOLT-4 leukemia is 36.1 µM; with NCI-H23 lung, more than 100 µM; with OVCAR-4 ovarian, more than 100 µM.
`Cc1cccc2c1NC(=O)[C@@]21[C@H](C(=O)c2ccccc2)[C@]2(C(=O)Nc3ccccc32)[C@H]2CCCN21`: the GI50 in the experiment on A498 renal was more than 100 µM; in the experiment with CAKI-1 renal, 22.4 µM; in the experiment on CCRF-CEM leukemia, 59.6 µM; in the experiment on HCT-116 colon, 15.2 µM; with HOP-92 NSCLC, 24.7 µM; in the experiment on MALME-3M melanoma, 31.4 µM. The GI50 with MOLT-4 leukemia is 52.7 µM; in the experiment on NCI-H23 lung it was 47 µM; in the experiment with OVCAR-4 ovarian, 16.4 µM. Besides, the TGI with A498 renal was more than 100 µM; in the experiment on CAKI-1 renal, more than 100 µM; with CCRF-CEM leukemia, more than 100 µM; with HCT-116 colon, 46.5 µM; with HOP-92 NSCLC, 59.1 µM; in the experiment on MALME-3M melanoma it was more than 100 µM. The TGI in the experiment on MOLT-4 leukemia is more than 100 µM; with NCI-H23 lung, more than 100 µM; in the experiment on OVCAR-4 ovarian it was 40.7 µM.
In the case of `O=c1ccccc(-c2ccc(-c3ccco3)cc2)c1O`, the GI50 was 3.46 µM in the experiment on A498 renal; 0.505 µM with CCRF-CEM leukemia; 0.582 µM with HCT-116 colon; 2.05 µM in the experiment on HOP-92 NSCLC; 0.633 µM in the experiment with IGROV1 ovarian; 2.77 µM with MALME-3M melanoma. For the same compound, the values for the GI50 in the experiment with MOLT-4 leukemia, in the experiment on NCI-H23 lung and in the experiment on OVCAR-4 ovarian were 0.501 µM, 1.22 µM and 0.363 µM, respectively. Also, the TGI is 25.9 µM in the experiment on A498 renal; more than 100 µM in the experiment on CCRF-CEM leukemia; 15.8 µM in the experiment on HCT-116 colon; 39.8 µM in the experiment on HOP-92 NSCLC; 73.8 µM in the experiment on IGROV1 ovarian; 26.3 µM in the experiment with MALME-3M melanoma. In addition, the TGI came to 51.5 µM in the experiment on MOLT-4 leukemia, 15 µM with NCI-H23 lung and 60.2 µM in the experiment with OVCAR-4 ovarian.
In the case of `CCN(CC)CCOC(=O)/C(=C/c1ccc(OC)cc1)c1cc(OC)c(OC)c(OC)c1`, the TGI in the experiment with A498 renal was 8.64 µM; in the experiment with CAKI-1 renal, 38 µM; with CCRF-CEM leukemia it was more than 100 µM; in the experiment on HCT-116 colon, more than 100 µM; in the experiment with HOP-92 NSCLC it was 54.1 µM; in the experiment with IGROV1 ovarian it was more than 100 µM. Also, the TGI in the experiment on MALME-3M melanoma is 34.1 µM; in the experiment on MOLT-4 leukemia, more than 100 µM; in the experiment on OVCAR-4 ovarian, more than 100 µM.
